Laboratory results as given in patent publication US6702803B2, “Multi-step drug dosage forms” (Delsys Pharmaceutical Corporation, priority 2000, dated 2004).

Experiment: Compatibility study of Drug A with polymeric films (chromatographic purity on storage)
Format: physicochemical
Conditions: HPMC film, HPMC/HPC blend film, polyvinyl alcohol film; 25°C/60% RH, 40°C/75% RH (closed and open bottle), 50°C; 2 to 12 weeks
Experimental: Compatibility studies were conducted to assess the compatibility of Drug A with several polymeric films, to determine an appropriate material for the substrate. The films studied were an HPMC film, an. HPMC/HPC blend film, and a polyvinyl alcohol film. Each film was cut into pieces approximately 0.5 cm square and a piece of each film was placed into a glass bottle. Approximately 500 mg of Drug A was added to each bottle. The bottles were closed with Teflon lined plastic caps. Bottles of Drug A and each of the films separately were prepared and used as controls. The controls and drug/polymer samples were stored in a closed chamber under the following conditions, and tested at the indicated time periods: A) 25° C.±2° C.; 60% RH±5%; tested at 2,4 and 12 weeks; B) 40° C.±2° C.; 75% RH±5%; tested at 2,4 and 12 weeks; C) 40° C.±2 S^C; 75% RH±5%, open bottle; tested at 2, 4 and 12 weeks; and D) 50° C.±2*C.; no humidity control; tested at 2,4, and 8 weeks. At each time point, the samples were tested for chromatographic purity. […] Several dosage forms were made, as outlined in Table 1. “ER” refers to the extended release portion. “HPMC, HPC” refers to a hydroxypropyrmethyl cellulose, hydroxypropyl cellulose copolymer. “PEO” refers to a polyethylene oxide polymer, “HPMC, PEG” refers to hydroxypropylmethyl cellulose containing polyethylene glycol (PEG) plasticizer.

SMILES: Cc1nccn1CC1CCc2c(c3ccccc3n2C)C1=O (stereo not shown) [Drug A, 1,2,3,9-tetrahydro-9-methyl-3-[(2-methyl-1H-imidazol-1-yl)methyl]-4H-carbazol-4-one]
- change in chromatographic purity of Drug A stored with polymer films, compared to control samples: no changes in purity
